Here are results for 55 compounds from patent US8871934B2, “Fluorene compound and pharmaceutical use thereof” (Japan Tobacco Inc., priority 2008, dated 2014).

The target in the test is human PDHK2 (hPDHK2) (Homo sapiens (Human), UniProt Q15119). The test is described as follows: Inhibitory action of PDHK activity in vitro (kinase reaction, residual PDH activity measured). The format is biochemical.
Where [1] appears, read: PDHK inhibitory activity (class symbol).
Setting [2] is: read-out: PDHK inhibitory activity IC50.
Where [3] appears, read: PDHK inhibitory activity, class symbol of IC50.
The mark [4] stands for this setting: class symbol of IC50, read-out: PDHK inhibitory activity.
Setting [5] is: PDHK inhibitory activity IC50 (μmol/L).

Like-named read-outs stand apart in the source and are kept apart here.

Consider `CC[Si](CC)(CC)CCc1cc(C(N)=O)c2c(c1)C(O)(C(F)(F)F)c1ccccc1-2` (centres unmarked) [compound 634], for which the IC50 is 100 to 1000 nM under setting [1] and 100 nM under setting [2].
In the case of `CNC(=O)c1ccc2c(c1)C(O)(C(F)(F)F)c1ccccc1-2` (centres unmarked) [compound 30], the IC50 under setting [3] is greater than 1000 nM and the IC50 under setting [2] came to 8610 nM.
Take `OC1(C(F)(F)F)c2ccccc2-c2ccc(OCC3CC3)cc21` (centres unmarked) [compound 256]: the IC50 is, setting by setting: under setting [3], greater than 1000 nM; under setting [2], 1000 nM.
With `COCc1ccc2c(c1)C(O)(C(F)(F)F)c1ccccc1-2` (centres unmarked) [compound 75], the IC50 runs as follows: under setting [3], greater than 1000 nM; under setting [2], 6780 nM.
In the case of `OCc1ccc2c(c1)C(O)(C(F)(F)F)c1ccccc1-2` (centres unmarked) [compound 69], the IC50 runs as follows: under setting [3], greater than 1000 nM; under setting [2], 16000 nM.
In the case of `NC(=O)CCOc1ccc2c(c1)C(O)(C(F)(F)F)c1ccccc1-2` (centres unmarked) [compound 301], the IC50 is greater than 1000 nM under setting [3] and 1590 nM under setting [2].
The corresponding values for `CN(CCOc1cnc2c(c1)C(O)(C(F)(F)F)c1ccccc1-2)C(=O)CO` (centres unmarked) [compound 399] are 100 to 1000 nM and 149 nM.
In the case of `CCC(=O)Nc1ccc2c(c1)-c1ccccc1C2(O)C(F)(F)F` (centres unmarked) [compound 100], the IC50 is, setting by setting: under setting [3], greater than 1000 nM; under setting [2], 6150 nM.
For the compound `CC(CO)(CO)n1cc(-c2cc(F)cc3c2-c2ccccc2C3(O)C(F)(F)F)cn1` (single isomer, unassigned; (+)) [compound 673, (+)-2-[4-(2-fluoro-9-hydroxy-9-trifluoromethyl-9H-fluoren-4-yl)-pyrazol-1-yl]-2-methyl-propane-1,3-diol], the IC50 is less than 100 nM under setting [1] and 22 nM under setting [2].
On to `CC(C)NC(=O)Cn1cc(-c2cccc3c2-c2ccccc2C3(O)C(F)(F)F)cn1` (centres unmarked) [compound 514], for which the IC50 runs as follows: under setting [3], less than 100 nM; under setting [2], 58 nM.
Consider `Cn1cc(-c2cc(C(=O)O)cc3c2-c2ccccc2C3(O)C(F)(F)F)cn1` (centres unmarked) [compound 344], for which the IC50 is greater than 1000 nM under setting [4] and greater than 1000 nM under setting [2].
For the compound `Cc1ccccc1-c1ccc2c(c1)C(O)(C(F)(F)F)c1ccccc1-2` (centres unmarked) [compound 151], the IC50 under setting [3] was greater than 1000 nM and the IC50 under setting [2] worked out at 5210 nM.
For `Cc1cc(-c2cnn(C(CO)(CO)CO)c2)c2c(c1)[C@@](O)(C(F)(F)F)c1ccccc1-2` [compound 707, (+)-2-hydroxymethyl-2-[4-(9-hydroxy-2-methyl-9-trifluoromethyl-9H-fluoren-4-yl)-pyrazol-1-yl]-propane-1,3-diol], the IC50 reads like this: under setting [1], less than 100 nM; under setting [5], 19 nM.
Consider `CCOC1CN(C(=O)c2ccc3c(c2)C(O)(C(F)(F)F)c2ccccc2-3)C1` (centres unmarked) [compound 104], for which the IC50 is 100 to 1000 nM under setting [3] and 279 nM under setting [2].
As to `CN(CC(=O)O)C(=O)COc1ccc2c(c1)C(O)(C(F)(F)F)c1ccccc1-2` (centres unmarked) [compound 462], the IC50 is, setting by setting: under setting [3], greater than 1000 nM; under setting [2], 5980 nM.
Taken in the same sequence, the figures for `CC(C)C(=O)Nc1ccc2c(c1)-c1ccccc1C2(O)C(F)(F)F` (centres unmarked) [compound 101] were greater than 1000 nM and 10300 nM.
As for `OC1(C(F)(F)F)c2ccccc2-c2cccc(F)c21` (centres unmarked) [compound 13], the IC50 by setting is: under setting [3], greater than 1000 nM; under setting [2], 15900 nM.
Taken in the same sequence, the figures for `O=C1CCCN1CCCOc1ccc2c(c1)C(O)(C(F)(F)F)c1ccccc1-2` (centres unmarked) [compound 395] were 100 to 1000 nM and 699 nM.
For the compound `CC1CCCN1C(=O)c1ccc2c(c1)C(O)(C(F)(F)F)c1ccccc1-2` (centres unmarked) [compound 77], the IC50 was greater than 1000 nM under setting [3] and 2500 nM under setting [2].
With `COc1cnc2c(c1)C(O)(C(F)(F)F)c1ccccc1-2` (centres unmarked) [compound 378], the IC50 reads like this: under setting [3], 100 to 1000 nM; under setting [2], 703 nM.
Take `Cc1cccc2c1-c1ncccc1C2(O)C(F)(F)F` (centres unmarked) [compound 15]: the IC50 under setting [3] is greater than 1000 nM and the IC50 under setting [2] was 16300 nM.
Regarding `NC(=O)c1cc(C(=O)N2CCC2)cc2c1-c1ccccc1C2(O)C(F)(F)F` (centres unmarked) [compound 174], the IC50 was less than 100 nM under setting [3] and 66 nM under setting [2].
The corresponding values for `CCC(=O)N1CCN(c2ccc3c(c2)C(O)(C(F)(F)F)c2ccccc2-3)CC1` (centres unmarked) [compound 207] are 100 to 1000 nM and 998 nM.
`OCC(CO)c1ncc(-c2cc(F)cc3c2-c2ccccc2C3(O)C(F)(F)F)o1` (single isomer, unassigned) [compound 682]: the IC50 runs as follows: under setting [1], less than 100 nM; under setting [2], 79 nM.
Turning to `Cn1cc(-c2cc(OCC(=O)O)cc3c2-c2ccccc2C3(O)C(F)(F)F)cn1` (centres unmarked) [compound 358], the IC50 runs as follows: under setting [3], less than 100 nM; under setting [2], 34 nM.
For the compound `O=C(c1ccc2c(c1)C(O)(C(F)(F)F)c1ccccc1-2)N1CCCC1CO` (centres unmarked) [compound 195], the IC50 reads like this: under setting [3], greater than 1000 nM; under setting [2], 5480 nM.
Consider `O=C(O)Cn1cc(-c2cc(F)cc3c2-c2ccccc2[C@]3(O)C(F)(F)F)cn1` (stereo in doubt) [compound 551], for which the IC50 is, setting by setting: under setting [5], 109 nM; under setting [3], 100 to 1000 nM.
Regarding `O=C(O)c1ccc2c(c1)C(O)(C(F)(F)F)c1ccccc1-2` (centres unmarked) [compound 24], the IC50 was greater than 1000 nM under setting [3] and greater than 100000 nM under setting [2].
Taken in the same sequence, the figures for `O=C(O)CCCOc1cc(Cl)c2c(c1)C(O)(C(F)(F)F)c1ccccc1-2` (single isomer, unassigned) [compound 479] were greater than 1000 nM and greater than 10000 nM.
`O=C(c1ccc2c(c1)C(O)(C(F)(F)F)c1ccccc1-2)N1CC(C(=O)N2CCC(O)C2)C1` (centres unmarked) [compound 337]: the IC50 by setting is: under setting [3], 100 to 1000 nM; under setting [2], 499 nM.
As to `COC(=O)C1CCN1C(=O)c1ccc2c(c1)C(O)(C(F)(F)F)c1ccccc1-2` (centres unmarked) [compound 304], the IC50 is 100 to 1000 nM under setting [3] and 723 nM under setting [2].
`CNC(=O)C1CCCN1C(=O)c1ccc2c(c1)C(O)(C(F)(F)F)c1ccccc1-2` (centres unmarked) [compound 177]: the IC50 reads like this: under setting [3], greater than 1000 nM; under setting [2], 9190 nM.
On to `NC(=O)c1cc(OCCN2CCCC2=O)cc2c1-c1ccccc1C2(O)C(F)(F)F` (centres unmarked) [compound 502], for which the IC50 is less than 100 nM under setting [3] and 48 nM under setting [2].
As to `CNC(=O)c1cccc(-c2ccc3c(c2)C(O)(C(F)(F)F)c2ccccc2-3)c1` (centres unmarked) [compound 157], the IC50 by setting is: under setting [3], 100 to 1000 nM; under setting [2], 358 nM.
For `OC12CC3CC(C1)CC(Cn1cc(-c4cccc5c4-c4ccccc4C5(O)C(F)(F)F)cn1)(C3)C2` (centres unmarked) [compound 547], the IC50 is less than 100 nM under setting [3] and 62 nM under setting [2].
On to `O=C(O)Cn1cc(-c2cccc3c2-c2ccccc2C3(O)C(F)(F)F)cn1` (centres unmarked) [compound 483], for which the IC50 was 100 to 1000 nM under setting [3] and 542 nM under setting [2].
As to `OC1(C(F)(F)F)c2ccccc2-c2ccc(-c3cccs3)cc21` (centres unmarked) [compound 144], the IC50 runs as follows: under setting [3], greater than 1000 nM; under setting [2], 1120 nM.
In the case of `CCn1cc(-c2cc(OCCCC(=O)O)cc3c2-c2ccccc2C3(O)C(F)(F)F)cn1` (single isomer, unassigned) [compound 554], the IC50 runs as follows: under setting [3], less than 100 nM; under setting [2], 20 nM.
Take `N#Cc1cc(C(=O)N2CCC2)cc2c1-c1ccccc1C2(O)C(F)(F)F` (centres unmarked) [compound 141]: the IC50 is less than 100 nM under setting [3] and 77 nM under setting [2].
As for `OC1(C(F)(F)F)c2ccccc2-c2c(Cl)cc(F)cc21` (centres unmarked) [compound 525], the IC50 runs as follows: under setting [3], 100 to 1000 nM; under setting [2], 677 nM.
Taken in the same sequence, the figures for `OC1(C(F)(F)F)c2ccccc2-c2c(-c3cnn(Cc4ccccc4)c3)cccc21` (centres unmarked) [compound 466] were less than 100 nM and 55 nM.
`O=C(c1cccc2c1-c1ccccc1C2(O)C(F)(F)F)N1CC1` (centres unmarked) [compound 111]: the IC50 by setting is: under setting [3], greater than 1000 nM; under setting [2], greater than 10000 nM.
Taken in the same sequence, the figures for `Cc1ccc(-c2ccc3c(c2)C(O)(C(F)(F)F)c2ccccc2-3)cc1` (centres unmarked) [compound 181] were greater than 1000 nM and 1510 nM.
As to `OC1(C(F)(F)F)c2ccccc2-c2c(-c3ccccn3)cccc21` (centres unmarked) [compound 134], the IC50 is, setting by setting: under setting [3], greater than 1000 nM; under setting [2], greater than 10000 nM.
The corresponding values for `O=C1CCCN1CCOc1cc(-c2cn[nH]c2)c2c(c1)C(O)(C(F)(F)F)c1ccccc1-2` (centres unmarked) [compound 491] are less than 100 nM and 20 nM.
`O=C(c1cc(-c2cncnc2)c2c(c1)C(O)(C(F)(F)F)c1ccccc1-2)N1CCC1` (centres unmarked) [compound 369]: the IC50 was less than 100 nM under setting [3] and 81 nM under setting [2].
As to `CC(C)(O)c1cc(-c2cnn(CCO)c2)cc2c1-c1ccccc1C2(O)C(F)(F)F` (centres unmarked) [compound 592], the IC50 under setting [4] was greater than 1000 nM and the IC50 under setting [2] is greater than 1000 nM.
On to `NC(=O)CCCCOc1ccc2c(c1)C(O)(C(F)(F)F)c1ccccc1-2` (centres unmarked) [compound 306], for which the IC50 runs as follows: under setting [3], 100 to 1000 nM; under setting [2], 453 nM.
Take `CC1CN(C(=O)c2ccc3c(c2)C(O)(C(F)(F)F)c2ccccc2-3)C1` (centres unmarked) [compound 88]: the IC50 is greater than 1000 nM under setting [3] and 2530 nM under setting [2].
In the case of `OCCCCCOc1ccc2c(c1)C(O)(C(F)(F)F)c1ccccc1-2` (centres unmarked) [compound 296], the IC50 reads like this: under setting [3], 100 to 1000 nM; under setting [2], 180 nM.
The corresponding values for `O=C(COc1ccc2c(c1)C(O)(C(F)(F)F)c1ccccc1-2)N1CCC(O)CC1` (centres unmarked) [compound 396] are 100 to 1000 nM and 627 nM.
Taken in the same sequence, the figures for `CC(=O)N(C)CCOc1cc(Cl)c2c(c1)C(O)(C(F)(F)F)c1ccccc1-2` (centres unmarked) [compound 388] were less than 100 nM and 63 nM.
With `O=C(O)C1CCN(C(=O)c2ccc3c(c2)C(O)(C(F)(F)F)c2ccccc2-3)C1` (centres unmarked) [compound 217], the IC50 under setting [3] was greater than 1000 nM and the IC50 under setting [2] was 5330 nM.
As to `O=C(O)CCCOc1cc(-c2cncnc2)c2c(c1)C(O)(C(F)(F)F)c1ccccc1-2` (single isomer, unassigned) [compound 604], the IC50 under setting [1] was less than 100 nM and the IC50 under setting [2] came out at 35 nM.
The corresponding values for `CC(C)(Cn1cc(-c2cc(F)cc3c2-c2ccccc2C3(O)C(F)(F)F)cn1)C(=O)O` (single isomer, unassigned) [compound 607] are less than 100 nM and 45 nM.
